The values that follow come from patent publication US11998013B1, “1-(morpholin-4-yl)-3-(naphthalen-2-yloxy)propan-2-ol as an eco-friendly insecticidal agent against spodoptera littoralis (boisd.)” (priority 2023, dated 2024).

≈ marks a conversion by molar mass, not a printed value.

This data set deals with Spodoptera littoralis. Kind of data set: Insecticidal bioassay screening (castor leaf dip, larval mortality). It counts as in vivo. The following applies: for Toxic ratio: 72 h, fenoxycarb's LC50 / compound's LC50 × 100. As to the method: Five concentrations (200, 100, 50, 25, 12.5 ppm) were designed for this synthetic compound and the reference fenoxycarb compound as the dynamic ingredients based on ppm via diluting the commercial formulation.
In this experiment, castor leaves are immersed in each of the previously prepared concentrations of the components for 10 seconds and then left to dry for 60 minutes. Larvae of the second and fourth instars of each checked strain are prepared with treated leaves in gauze-covered glass containers for 72 hrs. An untreated control is made in which leaves are dipped in triton x-100 and distilled water only. Then the preserved leaves were removed & fresh, untreated leaves were provided for 72 hours. Three replicates (10 larvae each) were checked for each concentration. Daily inspection was carried out for all treatments and mortality percentages were recorded 3 days (72 hours) after treatment. The average mortality percentage was corrected employing Abbott's formula. The corrected mortality rate for each of the previously synthesized compounds is statistically calculated according to Finney (1970). Through this rate, the corresponding concentration test lines (LDP lines) are assessed. Fifty and ninety percent mortality are determined, and the regression values for the checked products were previously evaluated.

As to `OC(COc1ccc2ccccc2c1)CN1CCOCC1` (stereo not drawn) [Compound 2, 1-(morpholin-4-yl)-3-(naphthalen-2-yloxy)propan-2-ol], the Toxic ratio was 15.5 (2nd instar larvae) and 62.4 (4th instar larvae). Under “Spodoptera littoralis, foliar”, this compound returned a median lethal concentration (LC50) of 17.6 µg/mL (≈ 61.1 µM). Besides, the “activity against Spodoptera littoralis (in words)” value (compared with the reference insecticide fenoxycarb) is “active against Spodoptera littoralis”.

Take `CCOC(=O)NCCOc1ccc(Oc2ccccc2)cc1` [Fenoxycarb, reference compound]: the LC50 is, setting by setting: (2nd instar larvae of S. littoralis, after 72 h of treatment, treated castor leaves) 2.73 ppm; (4th instar larvae of S. littoralis, after 72 h of treatment, treated castor leaves) 43.231 ppm; (Spodoptera littoralis, foliar) 2.73 µg/mL (≈ 9.06 µM). The Toxic ratio (2nd instar larvae) was 100 and the Toxic ratio (4th instar larvae) came to 1.
